Measurements taken from patent publication US9980943B2, “Methods of treating muscular dystrophy” (BOARD OF REGENTS OF THE NEVADA SYSTEM OF HIGHER EDUCATION, …, priority 2013, dated 2018).

How the values were obtained:
Type in all cases: cell-based, mouse
[1] = system: β-galactosidase in CMV-LacZ C2C12 myotubes; test: CMV-LacZ secondary screen in C2C12 myotubes (β-Gal stabilizing assay); details: SU9516 analogs, C2C12 CMV-LacZ, N=2
Method in brief: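 Stable CMV-LacZ C2C12 clone; six-point curve 0.5–40 μM; duplicates.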

[2] = system: β-galactosidase in CMV-LacZ C2C12 myoblasts; test: CMV-LacZ secondary screen in C2C12 myoblasts (β-Gal stabilizing assay); details: SU9516 analogs, C2C12 CMV-LacZ, N=2
Method in brief: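 First, C2C12 myoblasts were transfected with a linearized CMV-LACZ vector and clonal lines selected by FDG β-gal assay. Then cells were exposed to compounds at 0.5, 1, 5, 10, 20 and 40 μM in 96-well format, two replicates each, and β-gal measured.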

[3] = system: α7 integrin (LacZ reporter in α7+/LacZ myotubes); test: Myotube α7 integrin FDG assay (Burkin assay in myotubes, 96-well); details: SU9516 analogs, 96-well, N=3-6
[4] = system: α7 integrin (LacZ reporter in α7βgal+/− myoblasts); test: Myoblast α7+/LacZ integrin FDG assay (Burkin assay in myoblasts, 96-well); details: SU9516 analogs, 96-well, N=3-6

Row | SMILES | CMV-LACZ in Myotubes, value relative to DMSO ([1]; 0.5 uM) | CMV-LACZ in Myotubes, value relative to DMSO ([1]; 1 uM) | CMV-LACZ in Myotubes, value relative to DMSO ([1]; 5 uM) | CMV-LACZ in Myotubes, value relative to DMSO ([1]; 10 uM) | CMV-LACZ in Myotubes, value relative to DMSO ([1]; 20 uM) | CMV-LACZ in Myotubes, value relative to DMSO ([1]; 40 uM) | CMV-LACZ in Myoblasts, value relative to DMSO ([2]; 0.5 uM) | CMV-LACZ in Myoblasts, value relative to DMSO ([2]; 5 uM) | CMV-LACZ in Myoblasts, value relative to DMSO ([2]; 10 uM) | CMV-LACZ in Myoblasts, value relative to DMSO ([2]; 20 uM) | CMV-LACZ in Myoblasts, value relative to DMSO ([2]; 40 uM) | Burkin Assay in Myotubes, value relative to DMSO ([3]; 0.5 uM) | Burkin Assay in Myotubes, value relative to DMSO ([3]; 1 uM) | Burkin Assay in Myotubes, value relative to DMSO ([3]; 5 uM) | Burkin Assay in Myotubes, value relative to DMSO ([3]; 10 uM) | Burkin Assay in Myotubes, value relative to DMSO ([3]; 20 uM) | Burkin Assay in Myotubes, value relative to DMSO ([3]; 40 uM) | Burkin Assay in Myoblasts, value relative to DMSO ([4]; 0.5 uM) | Burkin Assay in Myoblasts, value relative to DMSO ([4]; 1 uM) | Burkin Assay in Myoblasts, value relative to DMSO ([4]; 5 uM) | other results
1 | COc1ccc2c(c1)/C(=C\c1cccc(/C=C3/C(=O)Nc4ccc(OC)cc43)n1)C(=O)N2 [MLS002702497-01] | 1.1181 | 2.2829 | 7.0726 | 6.3598 | 0.6520 | 0.6550 | 0.8643 | 2.6344 | 3.6076 | 0.2593 | 0.2779 | 0.8414 | 0.749 | 0.7692 | 0.7814 | 0.4567 | 0.3839 | 0.7804 | 0.5545 | 0.175 | CMV-LACZ in Myoblasts, value relative to DMSO ([2]; 1 uM): 1.0213; Burkin Assay in Myoblasts, value relative to DMSO ([4]; 10 uM): 0.1888; Burkin Assay in Myoblasts, value relative to DMSO ([4]; 20 uM): 0.05588; Burkin Assay in Myoblasts, value relative to DMSO ([4]; 40 uM): 0.04886
2 | O=Nc1c(-c2c(O)[nH]c3ccccc23)[nH]c2ccccc12 [NCGC00015545-02] | 0.8627 | 0.9536 | 0.7586 | 0.5058 | 0.5490 | 0.4770 | 1.0179 | 0.9440 | 0.8475 | 0.2907 | 0.2480 | 0.913 | 0.9118 | 0.6921 | 0.5516 | 0.4959 | 0.3519 | 1.175 | 1.325 | 0.596 | Burkin Assay in Myoblasts, value relative to DMSO ([4]; 10 uM): 0.319; Burkin Assay in Myoblasts, value relative to DMSO ([4]; 20 uM): 0.3086; Burkin Assay in Myoblasts, value relative to DMSO ([4]; 40 uM): 0.1824
3 | O=Nc1c(-c2c(O)[nH]c3ccccc23)[nH]c2ccccc12 [NCGC00015545-07] | 1.0736 | 1.1036 | 0.9434 | 0.8393 | 0.7010 | 0.5470 | 1.2967 | 0.7896 | 0.8603 | 0.5257 | 0.3383 | 1.126 | 1.08 | 0.8721 | 0.7457 | 0.6654 | 0.4975 | 1.073 | 1.12 | 0.8463 | CMV-LACZ in Myoblasts, value relative to DMSO ([2]; 1 uM): 1.1950; Burkin Assay in Myoblasts, value relative to DMSO ([4]; 10 uM): 0.568; Burkin Assay in Myoblasts, value relative to DMSO ([4]; 20 uM): 0.3068; Burkin Assay in Myoblasts, value relative to DMSO ([4]; 40 uM): 0.242
4 | COc1cc(OC)c(/C=C2/C(=O)Nc3ccccc32)c(OC)c1 [NCGC00015546-04] | 1.1555 | 1.1427 | 1.0553 | 1.1513 | 1.0230 | 1.0700 | 1.1442 | 1.4889 | 1.2439 | 0.8083 | 0.5873 | 0.9443 | 1.051 | 0.8529 | 0.8253 | 0.7881 | 0.7965 | 0.8923 | 0.9228 | 0.3771 | Burkin Assay in Myoblasts, value relative to DMSO ([4]; 10 uM): 0.214; Burkin Assay in Myoblasts, value relative to DMSO ([4]; 20 uM): 0.1937; Burkin Assay in Myoblasts, value relative to DMSO ([4]; 40 uM): 0.1497
5 | O=Nc1c(-c2c(O)[nH]c3cc(Br)ccc23)[nH]c2ccccc12 [NCGC00094112-04] | 1.0409 | 0.8864 | 0.8123 | 0.7933 | 0.7190 | 0.5420 | 1.1721 | 1.0309 | 1.0782 | 0.4403 | 0.3627 | 0.7402 | 0.8159 | 0.7596 | 0.629 | 0.6813 | 0.35 | 1.019 | 0.9927 | 0.5722 | CMV-LACZ in Myoblasts, value relative to DMSO ([2]; 1 uM): 1.1779; Burkin Assay in Myoblasts, value relative to DMSO ([4]; 10 uM): 0.4943; Burkin Assay in Myoblasts, value relative to DMSO ([4]; 20 uM): 0.4509; Burkin Assay in Myoblasts, value relative to DMSO ([4]; 40 uM): 0.3428
6 | Cc1cc(C)c(/C=C2\C(=O)Nc3ccccc32)[nH]1 [NCGC00094381-03] | 0.9227 | 1.2227 | 1.1125 | 1.5444 | 10.9800 | 18.6030 | 0.9504 | 0.8667 | 1.0089 | 0.7777 | 1.0253 | 0.8564 | 0.9334 | 0.9015 | 1.024 | 0.9497 | 1.151 | 0.9368 | 0.9952 | 0.7327 | Burkin Assay in Myoblasts, value relative to DMSO ([4]; 10 uM): 0.6579; Burkin Assay in Myoblasts, value relative to DMSO ([4]; 20 uM): 0.6668; Burkin Assay in Myoblasts, value relative to DMSO ([4]; 40 uM): 0.5203
7 | Cc1cc(C)c(/C=C2\C(=O)Nc3ccccc32)[nH]1 [NCGC00094381-05] | 1.0045 | 0.8773 | 1.2069 | 2.8305 | 6.8950 | 18.0610 | 0.8383 | 0.9614 | 0.8606 | 0.7147 | 0.8220 | 0.9234 | 0.931 | 1.047 | 1.319 | 1.05 | 1.138 | 0.9433 | 0.9804 | 0.7532 | Burkin Assay in Myoblasts, value relative to DMSO ([4]; 10 uM): 0.7145; Burkin Assay in Myoblasts, value relative to DMSO ([4]; 20 uM): 0.8879; Burkin Assay in Myoblasts, value relative to DMSO ([4]; 40 uM): 0.7578
